Measured values as given in US9462793B2, “Mouse carrying a knock-out mutation of the Qpct-gene” (PROBIODRUG AG, priority 2008, dated 2016).

What was measured:
[1] = molecular target: T1, Qpct (Homo sapiens, UniProt Q16769); assay: Inhibition of Qpct by chelators (metal dependence); format: biochemical; details: human Qpct and other animal Qpcts
[2] = system: mammalian Qpct; details: cited from earlier work
[3] = molecular target: T1, Qpct; assay: pH-dependence of Qpct catalyzed conversion of Glu-βNA; format: biochemical
Source text: (§1) However, in the pH-range of about 5.2-6.5, between their respective pKa-values, the two functional groups are present both in non-ionized forms, in concentrations of about 1-10% (—NH2) or 10-1% (—COOH) of total N-terminal Glu-containing peptide. As a result, over a mildly acidic pH-range species of N-terminal Glu-peptides are present which carry both groups uncharged, and, therefore, it is possible that Qpct could stabilize the intermediate of intramolecular cyclization into the pGlu-peptide, i.e. if the γ-carboxylic group is protonated, the carbonyl carbon is electrophilic enough to allow nucleophilic attack by the unprotonated α-amino group. At this pH the hydroxyl ion functions as a leaving group. These assumptions are corroborated by the pH-dependence data obtained for the Qpct catalyzed conversion of Glu-βNA. In contrast to glutamine conversion of Gln-βNA by Qpct, the pH-optimum of catalysis shifts to the acidic range around pH 6.0, i.e. the pH-range, in which substrate molecule species are simultaneously abundant carrying a protonated 7-carboxyl and unprotonated α-amino group.

[4] = pKa of α-amino group determined by titration; format: physicochemical
Source text: as §1

[5] = cited from earlier work

T1 sequence (Q16769 29-361): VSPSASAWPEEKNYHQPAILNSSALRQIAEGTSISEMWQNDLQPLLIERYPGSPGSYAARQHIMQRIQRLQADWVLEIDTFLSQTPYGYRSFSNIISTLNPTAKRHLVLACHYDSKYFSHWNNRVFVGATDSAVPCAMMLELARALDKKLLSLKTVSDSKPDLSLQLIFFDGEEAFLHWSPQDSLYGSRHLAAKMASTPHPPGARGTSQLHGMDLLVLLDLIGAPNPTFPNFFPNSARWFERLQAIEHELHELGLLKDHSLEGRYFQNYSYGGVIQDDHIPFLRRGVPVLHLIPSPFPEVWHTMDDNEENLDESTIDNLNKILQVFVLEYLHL

Compound | inhibition characteristics of Qpct [1] | Inhibition of a mammalian Qpct [2] | also measured
c1cnc2c(c1)ccc1cccnc12 [1,10-phenanthroline] | inhibition | Inhibition of a mammalian Qpct was only detected | 
Oc1cccc2cccnc12 [8-hydroxy-quinoline] | inhibition |  | 
O=C(O)CN(CCN(CC(=O)O)CC(=O)O)CC(=O)O [EDTA] |  | did not inhibit | 
N[C@@H](CCC(=O)O)C(=O)Nc1ccc2ccccc2c1 [Glu-βNA] |  |  | kinetically determined pKa-value [3]: 7.55+/−0.02; pKa of the α-amino group, determined by titration [4]: 7.57±0.05
N[C@@H](CCC(=O)O)C(=O)O [Glutamate] |  |  | pKa-value for the α-amino moiety [5]: ~7.5; pKa-value for the γ-carboxylic moiety [5]: about 4.2
O=C(O)c1cccc(C(=O)O)n1 [dipicolinic acid] | inhibition |  | 
reduced 6-methylpterin |  | Inhibition of a mammalian Qpct was only detected | 
